The test system of the experiment is CD2F1 mice, L1210 leukemia ip, survival T/C. Briefly: NCI In Vivo Anticancer Drug Screen. Data for tumor model L1210 Leukemia (intraperitoneal) in CD2F1 (CDF1) mice. The conditions noted are these: higher = longer survival. An outline of the steps: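 In this screen, transplantable tumors were grown in mice given either the compound or its vehicle. Results were expressed as the treated measurement relative to the control measurement.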

The mark [1] stands for this setting: endpoint: mean survival time, dose: 100.0 mg/kg/injection, schedule: Q04DX002 (ip), vehicle: saline with Tween-80.
[2] abbreviates: endpoint: mean survival time, dose: 200.0 mg/kg/injection, schedule: Q04DX002 (ip), vehicle: saline with Tween-80.
The mark [3] stands for this setting: endpoint: mean survival time, dose: 400.0 mg/kg/injection, schedule: Q04DX002 (ip), vehicle: saline with Tween-80.
The mark [4] stands for this setting: endpoint: mean survival time, dose: 100.0 mg/kg/injection, schedule: Q01DX009 (ip), vehicle: saline with Tween-80.
Where [5] appears, read: endpoint: mean survival time, dose: 100.0 mg/kg/injection, schedule: Q04DX003 (ip), vehicle: saline with Tween-80.
[6] abbreviates: endpoint: mean survival time, dose: 200.0 mg/kg/injection, schedule: Q04DX003 (ip), vehicle: saline with Tween-80.
Where [7] appears, read: endpoint: mean survival time, dose: 400.0 mg/kg/injection, schedule: Q04DX003 (ip), vehicle: saline with Tween-80.
Where [8] appears, read: endpoint: mean survival time, dose: 25.0 mg/kg/injection, schedule: Q01DX005 (ip), vehicle: distilled water + Tween-80.
Where [9] appears, read: endpoint: mean survival time, dose: 50.0 mg/kg/injection, schedule: Q01DX005 (ip), vehicle: distilled water + Tween-80.
Setting [10] is: endpoint: mean survival time, dose: 100.0 mg/kg/injection, schedule: Q01DX005 (ip), vehicle: distilled water + Tween-80.
Setting [11] is: endpoint: mean survival time, dose: 100.0 mg/kg/injection, schedule: Q01DX001 (ip), vehicle: other.
[12] abbreviates: endpoint: mean survival time, dose: 200.0 mg/kg/injection, schedule: Q01DX001 (ip), vehicle: other.
The mark [13] stands for this setting: endpoint: mean survival time, dose: 400.0 mg/kg/injection, schedule: Q01DX001 (ip), vehicle: other.

Values joined by “and” are separate entries in the source; they are usually repeats but may differ in a detail not shown here. Equal values may be shown once. Inconclusive results and toxic doses are left out.

Turning to `C[CH2][Sn]1([CH2]C)[O]C2C(CO)OC(n3ccc(=O)[nH]c3=O)C2[O]1` (stereo not drawn), the T/C is, setting by setting: (endpoint: mean survival time, dose: 1.56 mg/kg/injection, schedule: Q01DX005 (ip), vehicle: water) 103 % of control; (endpoint: mean survival time, dose: 3.13 mg/kg/injection, schedule: Q01DX005 (ip), vehicle: water) 102 % of control; (endpoint: mean survival time, dose: 6.25 mg/kg/injection, schedule: Q01DX005 (ip), vehicle: water) 96 % of control; (endpoint: mean survival time, dose: 12.5 mg/kg/injection, schedule: Q01DX005 (ip), vehicle: other) 104 % of control.

Take `CCOC(=O)Nc1cccc(F)c1C`: the T/C is 105 % of control under setting [1], 109 % of control under setting [2] and 94 % of control under setting [3].

For the compound `CC1(C)Oc2nc[nH]c(=O)c2C1c1ccccc1` (stereo not drawn), the T/C was 115 % of control under setting [4]; 101 % of control under setting [5]; 107 % of control (endpoint: mean survival time, dose: 200.0 mg/kg/injection, schedule: Q01DX009 (ip), vehicle: saline with Tween-80); 101 % of control under setting [6]; 98 % of control (endpoint: mean survival time, dose: 400.0 mg/kg/injection, schedule: Q01DX009 (ip), vehicle: saline with Tween-80); 98 % of control under setting [7].

In the case of `CCOC(=O)CCCSc1n[nH]c(=O)[nH]c1=O`, the T/C is 100 % of control (endpoint: mean survival time, dose: 12.5 mg/kg/injection, schedule: Q01DX005 (ip), vehicle: distilled water + Tween-80); 102 % of control under setting [8]; 96 % of control under setting [9]; 91 % of control under setting [10]; 92 % of control (endpoint: mean survival time, dose: 200.0 mg/kg/injection, schedule: Q01DX005 (ip), vehicle: distilled water + Tween-80).

`CN1CC(NC(=O)N(CCCl)N=O)CC2c3cccc4[nH]cc(c34)CC21` (stereo not drawn): the T/C is, setting by setting: (endpoint: mean survival time, dose: 12.5 mg/kg/injection, schedule: Q01DX001 (ip), vehicle: other) 119 % of control; (endpoint: mean survival time, dose: 50.0 mg/kg/injection, schedule: Q01DX001 (ip), vehicle: other) 154 % of control; under setting [11], 248 % of control; under setting [12], 390 % of control; under setting [13], 98 % of control.

Consider `Nc1ncnc2c1c(CO)cn2C1OC(CO)C(O)C1O` (stereo not drawn), for which the T/C is, setting by setting: under setting [8], 109 % of control; under setting [9], 117 % of control; under setting [10], 113 % of control.

With `CNC(=O)CCl`, the T/C (endpoint: mean survival time, dose: 25.0 mg/kg/injection, schedule: Q01DX009 (ip), vehicle: saline) is 103 % of control; the T/C (endpoint: mean survival time, dose: 50.0 mg/kg/injection, schedule: Q01DX009 (ip), vehicle: saline) is 105 % of control; the T/C (endpoint: mean survival time, dose: 100.0 mg/kg/injection, schedule: Q01DX009 (ip), vehicle: saline) is 104 % of control.

`CC(C)(O)C1CC2C=CC1C2` (stereo not drawn): the T/C was 98 % of control under setting [1], 102 % of control under setting [2] and 94 % of control under setting [3].

Take `CC(C(=O)O)=C(c1ccccc1)c1ccccc1`: the T/C reads like this: under setting [5], 90 % of control; under setting [6], 93 % of control; under setting [7], 87 % of control.

Take `CCCCCCCCOc1ccc(/C=N\N=C\c2ccc(OCCCCCCCC)cc2)cc1`: the T/C is, setting by setting: under setting [5], 94 % of control; under setting [6], 94 % of control; under setting [7], 94 % of control.

Take `O=S(=O)(O)Sc1ncnc2nc[nH]c12`: the T/C is, setting by setting: (endpoint: mean survival time, dose: 10.0 mg/kg/injection, schedule: Q01DX009 (ip), vehicle: saline) 117 % of control; (endpoint: mean survival time, dose: 20.0 mg/kg/injection, schedule: Q01DX009 (ip), vehicle: saline) 112 % of control; (endpoint: mean survival time, dose: 320.0 mg/kg/injection, schedule: Q01DX009 (ip), vehicle: saline) 107 % of control; (endpoint: median survival time, dose: 37.5 mg/kg/injection, schedule: Q04DX003 (ip), vehicle: saline) 119 % of control; (endpoint: median survival time, dose: 100.0 mg/kg/injection, schedule: Q01DX009 (ip), vehicle: saline) 182 % of control; (endpoint: median survival time, dose: 200.0 mg/kg/injection, schedule: Q01DX009 (ip), vehicle: saline) 154 % of control. Moreover, the T/C (endpoint: median survival time, dose: 300.0 mg/kg/injection, schedule: Q04DX003 (ip), vehicle: saline) is 166 % of control.

For `O=C(NCCNC(=O)Nc1ccccc1Cl)Nc1ccccc1Cl`, the T/C reads like this: under setting [1], 104 % of control; under setting [2], 97 % of control; under setting [3], 101 % of control.

In the case of `C[N+](C)(Cc1ccc(F)cc1)C1c2ccccc2-c2ccccc21`, the T/C (endpoint: mean survival time, dose: 1.56 mg/kg/injection, schedule: Q04DX003 (ip), vehicle: saline) is 97 % of control; the T/C (endpoint: mean survival time, dose: 3.13 mg/kg/injection, schedule: Q04DX003 (ip), vehicle: saline) was 97 % of control; the T/C (endpoint: mean survival time, dose: 6.25 mg/kg/injection, schedule: Q04DX003 (ip), vehicle: saline) was 98 % of control.

For `CC(C)(C)OC(=O)C[Si](C)(C)C`, the T/C is 90 % of control (endpoint: mean survival time, dose: 12.5 mg/kg/injection, schedule: Q01DX005 (ip), vehicle: Klucel (hydroxypropylcellulose) (HPC)); 91 % of control (endpoint: mean survival time, dose: 25.0 mg/kg/injection, schedule: Q01DX005 (ip), vehicle: Klucel (hydroxypropylcellulose) (HPC)); 93 % of control (endpoint: mean survival time, dose: 50.0 mg/kg/injection, schedule: Q01DX005 (ip), vehicle: Klucel (hydroxypropylcellulose) (HPC)); 90 % of control (endpoint: mean survival time, dose: 100.0 mg/kg/injection, schedule: Q01DX005 (ip), vehicle: Klucel (hydroxypropylcellulose) (HPC)); 88 % of control (endpoint: mean survival time, dose: 200.0 mg/kg/injection, schedule: Q01DX005 (ip), vehicle: Klucel (hydroxypropylcellulose) (HPC)); 90 % of control (endpoint: mean survival time, dose: 400.0 mg/kg/injection, schedule: Q01DX005 (ip), vehicle: Klucel (hydroxypropylcellulose) (HPC)).

As for `O=C(Nc1ccccc1O)/C(Cl)=C/Cl`, under setting [4], the T/C was 104 % of control.

Consider `CCCCCCCCCCCC(=O)NC(=S)Nc1ncccn1`, for which the T/C is 93 % of control under setting [11]; 91 % of control and 97 % of control (endpoint: mean survival time, dose: 100.0 mg/kg/injection, schedule: Q01DX009 (ip), vehicle: other); 98 % of control (endpoint: mean survival time, dose: 100.0 mg/kg/injection, schedule: Q04DX002 (ip), vehicle: other); 87 % of control under setting [12]; 92 % of control and 93 % of control (endpoint: mean survival time, dose: 200.0 mg/kg/injection, schedule: Q01DX009 (ip), vehicle: other); 102 % of control (endpoint: mean survival time, dose: 200.0 mg/kg/injection, schedule: Q04DX002 (ip), vehicle: other). Further, the T/C under setting [13] is 93 % of control; the T/C (endpoint: mean survival time, dose: 400.0 mg/kg/injection, schedule: Q01DX009 (ip), vehicle: other) is 92 % of control and 101 % of control; the T/C (endpoint: mean survival time, dose: 400.0 mg/kg/injection, schedule: Q04DX002 (ip), vehicle: other) is 87 % of control.

With `C[P+]1(c2ccccc2)CCC(N)=C(C#N)C1` (stereo not drawn), the T/C reads like this: (endpoint: mean survival time, dose: 25.0 mg/kg/injection, schedule: Q04DX002 (ip), vehicle: saline with Tween-80) 97 % of control; (endpoint: mean survival time, dose: 50.0 mg/kg/injection, schedule: Q04DX002 (ip), vehicle: saline with Tween-80) 101 % of control; under setting [1], 101 % of control.

Take `Cc1cc(=O)[nH]cn1`: the T/C reads like this: (endpoint: mean survival time, dose: 100.0 mg/kg/injection, schedule: Q04DX002 (ip), vehicle: saline) 105 % of control; (endpoint: mean survival time, dose: 200.0 mg/kg/injection, schedule: Q04DX002 (ip), vehicle: saline) 105 % of control; (endpoint: mean survival time, dose: 400.0 mg/kg/injection, schedule: Q04DX002 (ip), vehicle: saline) 97 % of control.

The record behind these values is PubChem BioAssay AID256 (DTP/NCI, 2004).
